Laboratory results from article PMC8752738, “A propolis-derived small molecule ameliorates metabolic syndrome in obese mice by targeting the CREB/CRTC2 transcriptional complex” (Nature Communications, 2022).
Where “and” joins values, the source holds several entries; their conditions need not be identical. Equal entries are not always repeated.

How the values were obtained:
[1] = Body weight and body composition (living NMR) of mice; assay type: in vivo, mouse; parameters: AUC of body weight curve, group mean / fat mass of DIO, group mean / Total Area (AUC of body weight curve): unit not given here; conditions: for Total Area (AUC of body weight curve) / Body weight, column mean (main column effect) / AUC of body weight curve, group mean / Body weight (BW) / Fat/lean ratio / fat mass of DIO / Fat/lean ratio, group mean / fat mass of DIO, group mean: DIO mice; for Body weight, column mean (main column effect): mean over 5 weeks, N=45; for AUC of body weight curve, group mean: n=9; for Fat/lean ratio, group mean / fat mass of DIO, group mean: n=8; for body weight of db/db ip APC, group mean: N 6; for Body weight, group mean: N=7; for Body weight: individual mice
Method: All animal experiments were performed according to procedures approved by the Shanghai Institutes for Biological Sciences (SIBS) Animal Care and Use Committee. The db/db mice (stock NO. 000642 C57BL/6J, JACKSON) were purchased from the Jackson laboratory. The 8–10-week-old wild-type C57BL/6 and ICR/JCL mice were purchased from the Shanghai Laboratory Animal Center. Mice were housed in the animal facility at SIBS, in which mice were maintained on a 12-h light/12-h dark cycle for at least 2 weeks before the study and had free access to water and a regular diet (12% fat). For high-fat-induced obesity mice (DIO), high-fat diet (60% fat, Research Diets) was fed to wild-type mice for at least 13–15 weeks and glucose-tolerance tests were performed to confirm the development of diabetes in these mice. After being euthanized, samples were collected. Unless specified, male mice were used for these experiments.
Under the condition of non-anesthesia and non-invasion, the composition of fat and lean in live mice was analyzed by nuclear magnetic resonance (NMR, The Minispec, Bruker) according to the operational manual.

FGF21 = assay: Immunoblotting of plasma and liver FGF21; assay type: in vivo, mouse
Method: 1 Supplementary Figure 10. A57 is novel inhibitor of the CREB/CRTC2 protein complex. […]
20 e) Immunoblotting of plasma and liver FGF21 protein in Crtc2KO mice, which induced by a high
21 fat diet for 13 weeks then orally administered APC (20 mg/kg), A57 (20 mg/kg) or vehicle (VEH) for
1 3 weeks. Two technological repeats present a composite pool including 5 mice per group. One
2 representative result from three-independent experiments is shown here.
3 f) Relative plasma FGF21 (top) and liver FGF21 (bottom), normalized by R250 signaling or
4 ACTIN respectively, is shown here as a bar graph. Data are represented as mean ± SEM (n=5 per
5 group, two technological repeats present a composite pool). ns, p > 0.05; *, p < 0.05; **, p < 0.01; p
7 for this figure are provided as a Source data file.

[2] = DIO and db/db mice, i.p. 10 or 20 mg/kg
[3] = APC 10 mg/kg, individual animals
[4] = APC 20 mg/kg, individual animals
[5] = db/db mice, mean, sample size 7

## CC(C)=CCc1cc(C=CC(=O)O)cc(CC=C(C)C)c1O [APC, 3,5-diprenyl-4-hydroxycinnamic acid]
[1]; [2]
  body weights: reduced
  fat mass and fat to lean ratio: significant decrease
[1]; APC 10 mg/kg ip, individual animals
  Total Area (AUC of body weight curve): 120.1 and 149.9 and 145.1 and 147.4 and 144.1 and 156.2 and 141.9 and 151.1 and 155.2
[1]; APC 10 mg/kg ip, in g (unit assumed)
  Body weight, column mean (main column effect): 37.24
[1]; APC 10 mg/kg ip
  AUC of body weight curve, group mean: 145.7
[1]; APC 10 mg/kg ip, week 0, individual animals
  Body weight (BW): 35.8 g and 42.4 g and 44.2 g and 42.6 g and 43.4 g and 41.4 g and 42 g and 41.7 g and 47 g
[1]; APC 10 mg/kg ip, week 1, individual animals
  Body weight (BW): 29.5 g and 36.7 g (2×) and 37.7 g and 36.4 g and 42.9 g and 35.2 g and 34.9 g and 39.6 g
[1]; APC 10 mg/kg ip, week 2, individual animals
  Body weight (BW): 29.3 g and 36.8 g and 38.4 g and 36 g (2×) and 36.6 g and 42.8 g and 35.7 g and 39.9 g
[1]; APC 10 mg/kg ip, week 3, individual animals
  Body weight (BW): 29.3 g and 37.3 g and 38.5 g and 36.1 g and 35 g and 42.4 g and 35.3 g and 35.8 g and 39.5 g
[1]; APC 10 mg/kg ip, week 4, individual animals
  Body weight (BW): 29.7 g and 37.3 g and 38.4 g and 36.7 g and 33.7 g and 40.9 g and 33.3 g and 42 g and 37.2 g
[1]; APC 10 mg/kg ip, week 5, individual animals
  Body weight (BW): 34.01 g and 40.28 g and 41.99 g and 40.47 g and 41.23 g and 39.33 g and 39.9 g and 39.615 g and 44.65 g
[1]; [3]
  Fat/lean ratio: 0.4757 and 0.5256 and 0.2029 and 0.4176 and 0.1933 and 0.2387 and 0.2853 and 0.2798
  fat mass of DIO: 10.86 g and 11.25 g and 7.23 g and 10.98 g and 11.28 g and 7.03 g and 6.72 g and 7.86 g
[1]; APC 10 mg/kg
  Fat/lean ratio, group mean: 0.3274
  fat mass of DIO, group mean: 9.151
[1]; APC 20 mg/kg ip, individual animals
  Total Area (AUC of body weight curve): 123.1 and 131.4 and 141.8 and 135.4 and 152.5 and 146.9 and 147.6 and 154 and 138.7
[1]; APC 20 mg/kg ip, in g (unit assumed)
  Body weight, column mean (main column effect): 35.74
[1]; APC 20 mg/kg ip
  AUC of body weight curve, group mean: 141.3
[1]; APC 20 mg/kg ip, week 0, individual animals
  Body weight (BW): 36.3 g and 41.5 g and 43.7 g and 41.3 g (2×) and 48.2 g and 44.7 g and 46.6 g and 47.1 g
[1]; APC 20 mg/kg ip, week 1, individual animals
  Body weight (BW): 29.9 g and 34.9 g and 36.7 g and 33 g and 40.6 g and 37.6 g and 35.9 g and 38.6 g and 35.1 g
[1]; APC 20 mg/kg ip, week 2, individual animals
  Body weight (BW): 30.2 g and 33.7 g (2×) and 35.8 g and 41.6 g and 38.4 g and 36.8 g and 39.6 g and 34.9 g
[1]; APC 20 mg/kg ip, week 3, individual animals
  Body weight (BW): 30 g and 31.4 g and 35.1 g and 33.7 g and 41.2 g and 35.4 g and 36.3 g and 37.9 g and 34.4 g
[1]; APC 20 mg/kg ip, week 4, individual animals
  Body weight (BW): 30.5 g and 31.2 g and 34 g (2×) and 38.9 g and 31.3 g and 36.7 g and 37.2 g and 34.3 g
[1]; APC 20 mg/kg ip, week 5, individual animals
  Body weight (BW): 30.855 g and 35.275 g and 37.145 g and 35.105 g (2×) and 40.97 g and 37.995 g and 39.61 g and 40.035 g
[1]; [4]
  Fat/lean ratio: 0.1945 and 0.1916 and 0.1806 and 0.5498 and 0.1998 and 0.4126 and 0.3005 and 0.2177
  fat mass of DIO: 8.13 g and 8.08 g and 9.26 g and 10.23 g and 9.91 g and 8.44 g and 10.75 g and 9.93 g
[1]; APC 20 mg/kg
  Fat/lean ratio, group mean: 0.2809
  fat mass of DIO, group mean: 9.341
[1]; db/db mice, individual animals
  fat of db/db mice: 13.23 g and 18.64 g and 16.51 g and 20.35 g and 17.58 g and 17.71 g and 15.53 g
  fat/lean ratio of db/db mice: 1.371 and 1.124 (2×) and 1.477 and 1.196 and 1.113 and 1.231
[1]; db/db mice, 0W, individual animals
  body weight of db/db ip APC: 45.4 g and 45.3 g and 44.6 g and 40 g and 47.8 g and 44 g
[1]; db/db mice, 1W, individual animals
  body weight of db/db ip APC: 48.6 g and 47.9 g and 47.4 g and 42.5 g and 49.5 g and 45.9 g
[1]; db/db mice, 1W, mean
  body weight of db/db ip APC, group mean: 46.97 g
[1]; db/db mice, 2W, individual animals
  body weight of db/db ip APC: 48.4 g and 47.9 g and 47.3 g and 41.7 g and 48.9 g and 45.9 g
[1]; db/db mice, 4W, individual animals
  body weight of db/db ip APC: 47.9 g and 46.5 g and 48.1 g and 42.5 g and 45.8 g and 47.8 g
[1]; db/db mice, 4W, mean
  body weight of db/db ip APC, group mean: 46.43 g
[1]; db/db mice, 5W, individual animals
  body weight of db/db ip APC: 47.9 g and 45.3 g and 47.8 g and 44.9 g and 46.8 g and 48.5 g
[1]; db/db mice, 5W, mean
  body weight of db/db ip APC, group mean: 46.87 g
[1]; [5]
  fat of db/db mice, group mean: 17.08 g
  fat/lean ratio of db/db mice, group mean: 1.234
[1]; lean WT mice ip APC, 8w, in g (unit assumed)
  Body weight, group mean: 20.96
[1]; lean WT mice ip APC, 8w
  Body weight: 21.4 g and 21.2 g and 20.1 g and 20.5 g and 21.7 g and 20.9 g (2×) and 21.6 g
[1]; lean WT mice ip APC, 8w-15w, in g (unit assumed)
  Body weight, column mean over all weeks: 22.98
[1]; lean WT mice ip APC, 10w, in g (unit assumed)
  Body weight, group mean: 22.01
[1]; lean WT mice ip APC, 10w
  Body weight: 23.62 g and 20.96 g and 22.95 g and 20.89 g and 22.05 g and 22.38 g and 21.2 g and 21.22 g
[1]; lean WT mice ip APC, 12w, in g (unit assumed)
  Body weight, group mean: 23.14
[1]; lean WT mice ip APC, 12w
  Body weight: 25.7 g and 21.4 g and 23.7 g and 23 g and 24.2 g and 22.5 g and 23.3 g and 21.5 g
[1]; lean WT mice ip APC, 13w, in g (unit assumed)
  Body weight, group mean: 24.08
[1]; lean WT mice ip APC, 13w
  Body weight: 25.85 g and 22.7 g and 24.7 g and 23.6 g and 24.5 g and 24.21 g and 23.8 g and 23 g
[1]; lean WT mice ip APC, 15w, in g (unit assumed)
  Body weight, group mean: 24.72
[1]; lean WT mice ip APC, 15w
  Body weight: 27.03 g and 22.8 g and 25.2 g and 23.7 g and 26 g and 24.5 g and 23.5 g and 23.8 g
[1]; lean wild C57 mice, i.p. 20 mg/kg, 3 weeks
  RER, body weight and plasma NEFA levels of lean mice: little effect
FGF21; Crtc2KO mice, oral 20 mg/kg, 3 weeks
  plasma and liver FGF21: did not further increase
FGF21; Supp. Fig.10 f down, CRTC2KO mice, n=3, VEH mean 2.47
  liver FGF21 in CRTC2, group mean (Mean 2): 2.579
FGF21; Supp. Fig.10 f down, CT2KO (CRTC2KO) mice, oral, individual replicates, Veh about 2.47
  Bands density of FGF21 in the liver: 2.47 and 2.45 and 2.816
FGF21; Supp. Fig.10 f up, CRTC2KO mice, individual replicates, VEH about 2.31
  Bands density, plasma FGF21 in CRTC2: 2.4404 and 2.52 and 2.451
FGF21; Supp. Fig.10 f up, CRTC2KO mice, n=3, VEH mean 2.31
  Bands density, plasma FGF21 in CRTC2, group mean (Mean 2): 2.47
